A value given as a limit tells only on which side of the number the result lay.

Data on twelve compounds can be found in ChEMBL document CHEMBL5143750, “Bisubstrate Inhibitors of Severe Acute Respiratory Syndrome Coronavirus-2 Nsp14 Methyltransferase” (ACS Med Chem Lett, 2022).

Test system in one data set: not listed separately
Description: Therapeutic index, ratio of CC50 for cytotoxicity against human A549 cells overexpressing ACE2 and TMPRSS2 to EC50 for antiviral activity against SARS-CoV-2 infected in human A549 cells overexpressing ACE2 and TMPRSS2 assessed as reduction in viral growth. The note with it: read-out: Ratio CC50/EC50. The format is toxicity, cell-based.
In the case of `Nc1ncnn2c([C@@H]3O[C@H](CNS(=O)(=O)c4ccc5ccccc5c4)[C@@H](O)[C@H]3O)ccc12`, the selectivity ratio is above 139.

Another data set relates to SARS-CoV-2. Description: Antiviral activity against SARS-CoV-2 infected in human A549 cells overexpressing ACE2 and TMPRSS2 assessed as reduction in viral growth incubated for 48 hrs by DAPI staining based immunofluorescence assay. The format is functional, organism-based. The note with it: Severe acute respiratory syndrome coronavirus 2, A549, 48 h.
A word on the EC50: it is the concentration giving half of the maximal effect. `CC(C)C(=O)O[C@@H]1[C@H](OC(=O)C(C)C)[C@@H](CNS(=O)(=O)c2ccc3ccccc3c2)O[C@H]1n1cnc2c(N)ncnc21`: the EC50 is 97 µM.
The same measure, in the same setting: next, `CC(=O)Nc1ncnc2c1ncn2[C@@H]1O[C@H](CNS(=O)(=O)c2ccc3ccccc3c2)[C@@H](OC(C)=O)[C@H]1OC(C)=O`: 61 µM.
For the compound `Nc1ncnn2c([C@@H]3O[C@H](CNS(=O)(=O)c4ccc5ccccc5c4)[C@@H](O)[C@H]3O)ccc12`, the concentration giving a half-maximal response (EC50) is 0.72 µM.
As to `CC(=O)O[C@@H]1[C@H](OC(C)=O)[C@@H](CNS(=O)(=O)c2ccc3ccccc3c2)O[C@H]1c1ccc2c(N)ncnn12`, the concentration for a half-maximal effect (EC50) amounted to 4.3 µM.
As to `CC(=O)O[C@@H]1[C@H](OC(C)=O)[C@@H](CNS(=O)(=O)c2ccc3ccccc3c2)O[C@H]1n1cnc2c(N)ncnc21`, the EC50 was 53 µM.

In another data set the test system is SARS-CoV-2. The data set can be described thus: Antiviral activity against SARS-CoV-2 infected in human A549 cells overexpressing ACE2 and TMPRSS2 assessed as inhibition of viral growth at 50 uM incubated for 48 hrs by DAPI staining based immunofluorescence assay. The format is functional. The note with it: Severe acute respiratory syndrome coronavirus 2, A549.
As a reminder, the inhibition is the drop in the measured response relative to a control, in per cent. Take `Nc1ncnc2c1ncn2[C@@H]1O[C@H](CNCc2ccc3ccccc3c2)[C@@H](O)[C@H]1O`: the inhibition at 50 µM is below 15%.
With `Nc1ncnc2c1ncn2[C@@H]1O[C@H](CNC(=O)c2ccc3ccccc3c2)[C@@H](O)[C@H]1O`, the inhibition at 50 µM is below 15%.
On the same count and under the same terms, in the case of `Nc1ncnc2c1ncn2[C@@H]1O[C@H](CNS(=O)(=O)c2ccc3cccnc3c2)[C@@H](O)[C@H]1O` it was below 15%; in that of `CC(=O)Nc1ncnc2c1ncn2[C@@H]1O[C@H](CNS(=O)(=O)c2ccc3ccccc3c2)[C@@H](O)[C@H]1O`, below 15%; in that of `Nc1ncnc2c1ncn2[C@@H]1O[C@H](CNS(=O)(=O)c2ccc3ccccc3c2)[C@@H](O)[C@H]1O`, below 15%.
For `Nc1ncnc2c1ncn2[C@@H]1O[C@H](CNS(=O)(=O)c2ccc3nc(Cl)ccc3c2)[C@@H](O)[C@H]1O`, the inhibition at 50 µM was below 15%.
On the same count and under the same terms, in the case of `Nc1ncnc2c1ncn2[C@@H]1O[C@H](C[C@@H](N)CC[C@H](N)C(=O)O)[C@@H](O)[C@H]1O` [SINEFUNGIN] it was below 15%.
